# Assay results reported in patent US20250108001A1, “TOPICAL OCULAR ADMINISTRATION OF AMBROXOL FOR OCULAR PAIN” (NeuVision Development LLC, priority 2022, published 2025).
# Legend:
# eyes of rats = experiment: Corneal sensation by Cochet-Bonnet esthesiometer after one topical drop in rats; details: rat eye; for minimum total corneal sensation preserved: at maximal effect (5-15 minutes), tactile sensation
# rat NOP models = experiment: Rat eye-wipe assay, Epi-off ocular pain model, 2M NaCl challenge; format: in vivo
# From the text: With minor modification of established rat NOP models, ocular pain was created by removing corneal epithelium (Epi-off) under general anesthesia. 2M NaCl saline (in contrast to 5M NaCl used in previous studies) was used to trigger peripheral neuronal excitement in response to hyperosmolarity while minimizing the potential inherent irritancy to the cornea from 5M NaCl. Then, one hour was given to each rat to allow complete recovery from anesthesia before proceeding to subsequent study steps. […] Due to its short duration of action, a proparacaine group was not included in this study (FIG. 2). The rat eye-wipe assay is an established animal behavioral and neurophysiological tool for the assessment of corneal sensitivity to noxious stimuli (Price T J, et al., Br. J. Pharmacol.). Increased corneal sensitivity was shown in male rats following lacrimal gland excision which correlates with eye wiping behaviors in response to hypertonic saline (5M NaCl) (Meng I D, et al., Invest. Ophthalmol. Vis. Sci. 2015).
# Nav1.8 nociceptor = Nav1.8 nociceptor (Homo sapiens, UniProt Q9Y5Y9); details: versus lidocaine; cited from earlier work
# Chain of Nav1.8 nociceptor (Q9Y5Y9 whole entry): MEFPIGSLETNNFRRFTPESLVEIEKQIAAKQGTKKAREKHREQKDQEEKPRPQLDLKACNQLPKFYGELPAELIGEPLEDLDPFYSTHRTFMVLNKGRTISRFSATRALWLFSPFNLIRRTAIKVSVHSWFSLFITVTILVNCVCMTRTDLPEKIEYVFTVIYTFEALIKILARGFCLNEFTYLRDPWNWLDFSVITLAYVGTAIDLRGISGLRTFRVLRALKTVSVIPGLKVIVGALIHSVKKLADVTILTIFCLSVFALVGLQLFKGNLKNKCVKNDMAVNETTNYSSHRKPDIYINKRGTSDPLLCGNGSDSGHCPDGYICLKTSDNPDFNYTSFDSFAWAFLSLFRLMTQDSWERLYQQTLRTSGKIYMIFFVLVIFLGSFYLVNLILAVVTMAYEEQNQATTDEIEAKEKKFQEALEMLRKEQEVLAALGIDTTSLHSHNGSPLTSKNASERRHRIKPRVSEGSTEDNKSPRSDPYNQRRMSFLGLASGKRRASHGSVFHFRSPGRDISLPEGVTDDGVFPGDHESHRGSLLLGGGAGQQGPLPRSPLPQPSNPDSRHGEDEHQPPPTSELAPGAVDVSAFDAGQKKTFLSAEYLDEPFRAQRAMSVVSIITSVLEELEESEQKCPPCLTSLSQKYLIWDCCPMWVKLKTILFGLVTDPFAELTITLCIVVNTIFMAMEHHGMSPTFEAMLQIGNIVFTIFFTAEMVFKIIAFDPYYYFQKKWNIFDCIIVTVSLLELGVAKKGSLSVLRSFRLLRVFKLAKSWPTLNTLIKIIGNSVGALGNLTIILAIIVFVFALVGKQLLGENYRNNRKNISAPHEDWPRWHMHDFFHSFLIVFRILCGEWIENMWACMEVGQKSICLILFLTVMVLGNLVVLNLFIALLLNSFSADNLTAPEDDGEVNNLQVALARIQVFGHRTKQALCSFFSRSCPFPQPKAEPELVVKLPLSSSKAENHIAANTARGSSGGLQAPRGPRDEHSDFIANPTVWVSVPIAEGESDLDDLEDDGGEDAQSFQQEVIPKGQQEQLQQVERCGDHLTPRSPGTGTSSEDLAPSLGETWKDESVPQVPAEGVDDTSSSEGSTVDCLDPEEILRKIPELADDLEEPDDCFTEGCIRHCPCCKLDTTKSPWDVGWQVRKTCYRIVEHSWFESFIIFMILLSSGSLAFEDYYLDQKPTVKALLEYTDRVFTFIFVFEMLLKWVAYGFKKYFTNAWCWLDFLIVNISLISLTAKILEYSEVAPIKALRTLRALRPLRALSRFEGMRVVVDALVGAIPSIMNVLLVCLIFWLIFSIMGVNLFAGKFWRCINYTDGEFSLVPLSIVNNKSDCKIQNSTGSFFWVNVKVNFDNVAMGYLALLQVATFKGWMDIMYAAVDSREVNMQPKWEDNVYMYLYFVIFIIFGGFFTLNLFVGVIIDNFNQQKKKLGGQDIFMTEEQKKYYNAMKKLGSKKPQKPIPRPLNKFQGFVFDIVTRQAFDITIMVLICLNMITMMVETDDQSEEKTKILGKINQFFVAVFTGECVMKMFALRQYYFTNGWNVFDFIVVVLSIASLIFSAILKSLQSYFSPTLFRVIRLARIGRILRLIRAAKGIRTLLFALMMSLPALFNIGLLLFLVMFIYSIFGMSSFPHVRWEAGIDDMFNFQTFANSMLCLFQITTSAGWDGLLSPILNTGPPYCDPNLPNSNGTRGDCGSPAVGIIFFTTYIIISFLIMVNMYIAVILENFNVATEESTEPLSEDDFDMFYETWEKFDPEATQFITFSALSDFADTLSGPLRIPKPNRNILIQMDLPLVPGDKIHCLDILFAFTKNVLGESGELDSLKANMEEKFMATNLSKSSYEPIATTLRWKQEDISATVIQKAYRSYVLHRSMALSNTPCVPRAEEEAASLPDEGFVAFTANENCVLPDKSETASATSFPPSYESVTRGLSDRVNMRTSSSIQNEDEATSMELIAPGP
# Nav1.7 nociceptor = Nav1.7 nociceptor (Homo sapiens, UniProt Q15858); details: versus lidocaine; cited from earlier work
# Chain of Nav1.7 nociceptor (Q15858 whole entry): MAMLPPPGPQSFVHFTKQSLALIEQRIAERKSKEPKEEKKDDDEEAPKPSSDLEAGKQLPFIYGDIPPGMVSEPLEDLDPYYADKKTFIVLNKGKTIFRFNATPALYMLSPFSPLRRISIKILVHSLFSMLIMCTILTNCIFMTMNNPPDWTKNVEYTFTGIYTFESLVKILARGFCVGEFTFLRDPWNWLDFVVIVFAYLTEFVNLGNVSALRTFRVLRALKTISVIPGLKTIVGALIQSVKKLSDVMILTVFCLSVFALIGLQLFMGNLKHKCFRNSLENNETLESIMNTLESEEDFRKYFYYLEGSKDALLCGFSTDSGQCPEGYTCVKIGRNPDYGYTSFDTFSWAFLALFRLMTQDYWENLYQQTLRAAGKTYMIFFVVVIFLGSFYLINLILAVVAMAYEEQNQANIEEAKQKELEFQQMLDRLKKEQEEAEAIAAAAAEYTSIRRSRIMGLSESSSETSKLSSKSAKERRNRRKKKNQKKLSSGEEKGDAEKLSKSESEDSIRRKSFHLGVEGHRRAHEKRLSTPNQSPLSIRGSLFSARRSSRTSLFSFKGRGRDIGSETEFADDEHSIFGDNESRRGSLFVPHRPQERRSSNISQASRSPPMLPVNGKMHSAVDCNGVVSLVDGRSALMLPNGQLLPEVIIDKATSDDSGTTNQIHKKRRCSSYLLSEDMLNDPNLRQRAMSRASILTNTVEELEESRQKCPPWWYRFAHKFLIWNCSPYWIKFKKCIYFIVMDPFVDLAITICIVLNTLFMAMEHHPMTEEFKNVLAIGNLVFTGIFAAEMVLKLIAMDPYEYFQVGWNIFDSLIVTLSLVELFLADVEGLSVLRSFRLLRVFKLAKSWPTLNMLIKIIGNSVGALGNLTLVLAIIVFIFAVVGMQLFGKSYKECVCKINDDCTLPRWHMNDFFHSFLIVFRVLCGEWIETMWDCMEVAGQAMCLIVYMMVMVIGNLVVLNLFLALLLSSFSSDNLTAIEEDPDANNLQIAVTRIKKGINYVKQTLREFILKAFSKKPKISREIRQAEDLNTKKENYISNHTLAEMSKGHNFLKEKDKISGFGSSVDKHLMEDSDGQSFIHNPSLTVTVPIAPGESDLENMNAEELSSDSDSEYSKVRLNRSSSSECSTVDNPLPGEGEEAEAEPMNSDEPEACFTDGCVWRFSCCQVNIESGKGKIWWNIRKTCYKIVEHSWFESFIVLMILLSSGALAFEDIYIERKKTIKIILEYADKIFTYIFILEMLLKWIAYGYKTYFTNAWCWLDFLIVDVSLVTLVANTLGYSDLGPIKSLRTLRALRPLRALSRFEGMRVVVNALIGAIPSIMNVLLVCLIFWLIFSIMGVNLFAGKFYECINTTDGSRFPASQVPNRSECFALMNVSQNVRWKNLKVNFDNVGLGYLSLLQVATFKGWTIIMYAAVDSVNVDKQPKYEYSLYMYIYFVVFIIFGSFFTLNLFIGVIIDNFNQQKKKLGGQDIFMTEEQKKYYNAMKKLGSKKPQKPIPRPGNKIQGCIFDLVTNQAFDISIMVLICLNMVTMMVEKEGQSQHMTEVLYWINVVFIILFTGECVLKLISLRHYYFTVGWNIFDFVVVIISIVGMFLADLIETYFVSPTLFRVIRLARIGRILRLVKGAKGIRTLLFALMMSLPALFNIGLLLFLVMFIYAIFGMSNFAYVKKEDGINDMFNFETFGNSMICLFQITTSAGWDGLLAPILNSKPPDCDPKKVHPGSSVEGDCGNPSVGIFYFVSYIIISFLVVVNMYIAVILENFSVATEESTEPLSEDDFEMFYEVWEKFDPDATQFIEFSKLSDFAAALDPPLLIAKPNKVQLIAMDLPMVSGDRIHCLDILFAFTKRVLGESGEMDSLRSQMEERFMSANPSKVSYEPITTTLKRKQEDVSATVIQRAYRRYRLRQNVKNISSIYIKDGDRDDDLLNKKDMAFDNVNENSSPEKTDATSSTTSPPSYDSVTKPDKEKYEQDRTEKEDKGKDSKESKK
# cornea = details: topical 0.1%, humans; cited from earlier work
# [1] = 0.3% and 0.5% ambroxol HCl solutions
# [2] = single drop 0.5% ambroxol, Epi-off rats, 2M NaCl
smiles,measurement,setting,value
"Nc1c(Br)cc(Br)cc1CN[C@H]1CC[C@H](O)CC1 [ambroxol, trans-4-(2-Amino-3,5-dibrombenzylamino)-cyclohexanol]",minimum total corneal sensation preserved,eyes of rats; 0.3% ambroxol HCl solution,≥ 15%
same,duration of drug action on corneal sensation,eyes of rats; [1],about 4 hours
same,time of maximal effect on corneal sensation,eyes of rats; [1],5 to 15 min
same,minimum total corneal sensation preserved,eyes of rats; 0.5% ambroxol HCl solution,≥ 15%
same,time of maximal effect in eye-wipe assay,"rat NOP models; 0.5% ambroxol-containing formulation, after administration",up to 30 min
same,duration of reduction in eye wiping count/min,rat NOP models; [2],at least 4 hours
same,sensitivity to hyperosmolarity at the ocular surface,rat NOP models; [2],obviously preserved
same,eye wiping count/min in response to 2M NaCl,"rat NOP models; single drop 0.5% ambroxol, Epi-off rats, versus carrier buffer control",significant reduction
same,potency in binding the Nav1.8 nociceptor relative to lidocaine,Nav1.8 nociceptor,40 times
same,potency of Nav1.8 block relative to lidocaine,Nav1.8 nociceptor,approximately 40 times
same,binding affinity for the Nav1.7 nociceptor relative to lidocaine,Nav1.7 nociceptor,same level
O=C(O)Cc1ccccc1Nc1c(Cl)cccc1Cl [diclofenac],cornea anesthetic effect,cornea,does not have clinically significant cornea anesthetic effect
CCCOc1ccc(C(=O)OCCN(CC)CC)cc1N [proparacaine],corneal sensor network block (FIG. 1),eyes of rats; 0.5% proparacaine,completely blocked
same,change in eye wiping counts before (Epi-on) and after surgery (Epi-off),"rat NOP models; 0.5% proparacaine HCl, at its maximal effect (5 min), data not shown",no significant change
